According to patent US20240327787A1, “CULTURE MEDIUM, COATING MATRIX AND METHOD FOR EXPANDING MIDBRAIN DOPAMINERGIC PROGENITOR CELLS” (NUWACELL BIOTECHNOLOGIES CO., LTD., priority 2022, published 2024):
Where a name gives a salt, the structure may show the parent alone.

Test system: imDAPs
Experiment: Flow cytometry analysis of FOXA2 expression in expanded imDAPs
Type: cell-based, human
Settings: VTN-coated
Protocol: 1. Individualize and collect cells by either Accutase or TrypLE treatment.
2. Wash cells with 1 ml PBS and pellet cells at 250×g for 15 sec.
3. Remove supernatant, add ˜200 μl of 4% PFA, mix and fix for 10 min at RT.
4. Pellet cells at 350×g for 5 min.
5. Wash cells by 1 ml of FACS buffer and pellet cells at 350×g for 5 min.
6. Remove supernatant, add 200 μl/tube of FACS buffer/0.1% TritonX, mix for 10 min at RT.
7. Wash cells by 1 ml of FACS buffer and pellet cells at 350×g for 5 min.
8. Remove supernatant, add 200 μl/tube of primary antibody diluted in FACS buffer, mix gently, and incubate for 30 min at RT.
9. Wash cells by 1 ml of FACS buffer and pellet cells at 350×g for 5 min.
10. Remove supernatant, and add 200 μl of secondary antibody diluted in FACS buffer, mix gently, and incubate for 30 min at RT.
11. Wash cells by 1 ml of FACS buffer and pellet cells at 300×g for 5 min.
12. Remove supernatant, add 200 μl of FACS buffer, and run samples on the flow cytometry.
imDAPs were produced according to the method described in CN201910169525.0. The imDAPs (P0) were seeded on VTN-coated plates (1 μg/cm^2) at a low density of 1×10^4 cells/cm^2, and cultured in the expansion medium (50% DMEM/F12, 50% Neurobasal™ medium, 1% (v/v) Glutamax, 2% (v/v) B27 (50×), 0.2 μM LDN193189, 3 μM CHIR99021, 100 ng/mL FGF8b) with either 5 μM Blebbistatin or 10 μM Y27632. Medium was replaced every 3rd day. At Day 6, cells were collected for FACS analysis.
imDAPs were produced according to the method described in CN201910169525.0. The imDAPs (P0) were seeded on DLL4-coated (1 μg/cm^2), VTN-coated (1 μg/cm^2) and DLL4/VTN-coated (1 μg/cm^2 for each) plates at a low density of 1×10^4 cells/cm^2 respectively, and cultured in the expansion medium in the absence or presence of 5 μM SB431542. Medium was replaced every 3rd day until reaching 100% confluence (6 days) for cell collection. The typical cell morphology on day 4 was recorded (FIG. 4A). The cell number of each group was counted by Vi-cell cytometer (FIG. 4B). The cells of each group were stained with Foxa2-PE antibody (BD, #561589), the percentage of Foxa2+ imDAPs were analyzed by flow cytometry (FIG. 4C). The expansion medium used in this example contained the following components: 50% DMEM/F12, 50% Neurobasal™ medium, 1% (v/v) Glutamax, 1% (v/v) B27, 50 μg/ml ascorbic acid, 0.2 μM LDN193189, 100 ng/ml FGF8b, 3 μM CHIR99021 and 10 µM Y27632.
imDAPs were produced according to the method described in CN201910169525.0. The imDAPs (P0) were seeded on DLL4/VTN-coated (1 μg/cm^2 for each) plates at a low density of 1×10^4 cells/cm^2, and cultured in the expansion medium (EM1, EM2, EM3, EM4). Medium was replaced every 3rd day until reaching 100% confluence (6 days) for cell collection. EM1 used in Example 9 contained the following components: 50% DMEM/F12, 50% Neurobasal™ medium, 1% (v/v) Glutamax, 1% (v/v) B27 (50×), 50 μg/ml ascorbic acid, 3 μM CHIR99021, 5 μM SB431542 and 10 μM Y27632. EM2 used in Example 9 contained the following components: 50% DMEM/F12, 50% Neurobasal™ medium, 1% (v/v) Glutamax, 1% (v/v) B27 (50×), 50 μg/ml ascorbic acid, 0.2 μM LDN193189, 3 μM CHIR99021, 5 μM SB431542 and 10 μM Y27632. EM3 used in Example 9 contained the following components: 50% DMEM/F12, 50% Neurobasal™ medium, 1% (v/v) Glutamax, 1% (v/v) B27 (50×), 50 μg/mL ascorbic acid, 0.2 μM LDN193189, 100 ng/ml FGF8b, 3 μM CHIR99021, 5 μM SB431542 and 10 μM Y27632. […]

C[C@@H](N)[C@H]1CC[C@H](C(=O)Nc2ccncc2)CC1 [Y27632, (R)-(+)-trans-4-(1-aminoethyl)-N-(4-pyridyl) cyclohexanecarboxamide dihydrochloride]
percentage of Foxa2-expressing cells (FIG. 2) (10 μM Y27632 vs 5 μM Blebbistatin in expansion medium, 1×10^4 cells/cm^2, Day 6): capable of improving the percentage of Foxa2-expressing cells than Blebbistatin
percentage of Foxa2-expressing cells during passages (expansion medium with 10 μM Y27632): still decreased during passages
